Assay results: patent publication US20010023832A1, “Chemical sensor and use thereof” (priority 1995, published 2001)

Biological target: the enzyme urea (Canavalia ensiformis, UniProt P07374)
Experiment: Effect of potential interfering substances on the pH response of the urea(bio)sensor
Format: biochemical
Text: Furthermore, the effect of potential interfering substances, such as glucose, acetone, citric acid and sodium acetate, was investigated, see Table 2.

Chain of the enzyme urea (P07374 whole entry, looked up): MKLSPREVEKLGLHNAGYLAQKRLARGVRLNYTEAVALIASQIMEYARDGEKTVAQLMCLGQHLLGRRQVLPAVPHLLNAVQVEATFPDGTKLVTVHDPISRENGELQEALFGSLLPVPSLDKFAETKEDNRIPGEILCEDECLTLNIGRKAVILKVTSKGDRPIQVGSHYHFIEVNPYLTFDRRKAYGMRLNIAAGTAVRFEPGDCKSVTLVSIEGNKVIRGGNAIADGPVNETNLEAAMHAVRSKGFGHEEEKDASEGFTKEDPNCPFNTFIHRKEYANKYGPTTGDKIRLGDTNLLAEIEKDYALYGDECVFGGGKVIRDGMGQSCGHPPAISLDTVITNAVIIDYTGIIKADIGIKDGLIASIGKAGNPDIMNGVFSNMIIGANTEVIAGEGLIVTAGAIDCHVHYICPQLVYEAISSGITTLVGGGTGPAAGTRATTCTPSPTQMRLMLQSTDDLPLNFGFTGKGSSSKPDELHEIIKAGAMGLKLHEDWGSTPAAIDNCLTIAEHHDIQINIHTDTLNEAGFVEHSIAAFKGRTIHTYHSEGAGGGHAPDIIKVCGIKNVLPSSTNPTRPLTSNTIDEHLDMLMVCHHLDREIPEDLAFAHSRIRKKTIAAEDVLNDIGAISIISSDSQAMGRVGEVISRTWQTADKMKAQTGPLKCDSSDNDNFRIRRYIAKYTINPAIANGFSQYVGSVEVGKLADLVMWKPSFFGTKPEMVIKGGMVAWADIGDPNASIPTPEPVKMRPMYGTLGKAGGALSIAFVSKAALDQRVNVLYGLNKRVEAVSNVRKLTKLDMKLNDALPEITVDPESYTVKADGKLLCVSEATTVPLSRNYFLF

Compound | Change in ΔpH (%) (substance 0.6 mM in sample solution, urea(bio)sensor, pH electrode) | Change in ΔpH (%) (substance 1 mM in sample solution, no stabiliser) | Change in ΔpH (%) (substance 1 mM, value in parentheses, stabiliser (for instance EDTA) injected together with the enzyme) | Change in ΔpH (%) (substance 2 mM in sample solution, no stabiliser) | Change in ΔpH (%) (substance 2 mM, value in parentheses, stabiliser (for instance EDTA) injected together with the enzyme)
CC(=O)[O-].[Na+] [Sodium acetate] | 0 |  |  |  | 
O=S(=O)([O-])[O-].[Cu+2] [Copper sulphate] |  | −38 | 0 | −65 | 0
